The test system of the series is rodent carcinogenicity bioassays, tumor incidence. The experiment in a line: CCRIS carcinogenicity studies. The method, boiled down:
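Archive of carcinogenicity, mutagenicity, tumor promotion and tumor inhibition results drawn from journals, NCI reports and other sources, expert-reviewed; covers 1985-2011 and is no longer updated.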

The structures appear in SMILES notation. Activity calls are given as the source filed them. The rule behind the calls is not given here.

As to `CCn1nc(C)c2c1C(c1ccccc1)=NCC(=O)N2`, the carcinogen call by setting is: (Species: MOUSE, Strain/Sex: CD-1/FEMALE, Route: ORAL, Dose: 0, 15, 150, MG/KG IN DIET FOR 78 WK (STUDY DURATION: 78 WK), Dose: 0, 15, 150, MG/KG IN DIET FOR 78 WK (STUDY DURATION: 78 WK)) “inactive; negative”; (Species: MOUSE, Strain/Sex: CD-1/MALE, Route: ORAL, Dose: 0, 15, 150, MG/KG IN DIET FOR 78 WK (STUDY DURATION: 78 WK), Dose: 0, 15, 150, MG/KG IN DIET FOR 78 WK (STUDY DURATION: 78 WK), Tumor Site: Type of Lesion: LIVER: ADENOMA) “active; positive”; (Species: RAT, Strain/Sex: CD/FEMALE, Route: ORAL, Dose: 0, 15, 150 MG/KG IN DIET FOR 104 WK (STUDY DURATION: 104 WK), Dose: 0, 15, 150 MG/KG IN DIET FOR 104 WK (STUDY DURATION: 104 WK)) “inactive; negative”; (Species: RAT, Strain/Sex: CD/MALE, Route: ORAL, Dose: 0, 15, 150 MG/KG IN DIET FOR 104 WK (STUDY DURATION: 104 WK), Dose: 0, 15, 150 MG/KG IN DIET FOR 104 WK (STUDY DURATION: 104 WK)) “inactive; negative”.

As to `CCCCN(CC)c1c([N+](=O)[O-])cc(C(F)(F)F)cc1[N+](=O)[O-]`, the carcinogen call is “inactive; negative; slight but not statistically elevated incidence of total neoplastic tu” (Species: Mouse, Strain/Sex: B6C3F1/Female, Route: Oral, Dose: 0, 0.005, 0.03, 0.15% in diet for 2 yrs in 2 replicates of 30 mice/sex/group, Dose: 0, 0.005, 0.03, 0.15% in diet for 2 yrs in 2 replicates of 30 mice/sex/group); “inactive; negative; slight but not statistically elevated incidence of total neoplastic t” (Species: Mouse, Strain/Sex: B6C3F1/Male, Route: Oral, Dose: 0, 0.005, 0.03, 0.15% in diet for 2 yrs in 2 replicates of 30 mice/sex/group, Dose: 0, 0.005, 0.03, 0.15% in diet for 2 yrs in 2 replicates of 30 mice/sex/group); “active; positive; ca dpr judged the study as showing possible adverse effects” (Species: Rat, Strain/Sex: CDF (F344)CrlBR/Female (50/sex/group), Route: Oral, Dose: 0, 10, 100, 2500, 5000 ppm (about 0; 0.7; 6.8; 168; 331 mg/kg/day ) in diet for 104 wks, Dose: 0, 10, 100, 2500, 5000 ppm (about 0; 0.7; 6.8; 168; 331 mg/kg/day ) in diet for 104 wks, Tumor Site: Type of Lesion: Thyroid: thyroid follicular adenomas and carcinomas (0/50; 0/50; 1/50; 5/50; 4/50)); “active; positive; ca dpr judged the study as showing possible adverse effects” (Species: Rat, Strain/Sex: CDF (F344)CrlBR/Male (50/sex/group), Route: Oral, Dose: 0, 10, 100, 2500, 5000 ppm (about 0; 0.5; 5.4; 136; 275 mg/kg/day ) in diet for 104 wks, Dose: 0, 10, 100, 2500, 5000 ppm (about 0; 0.5; 5.4; 136; 275 mg/kg/day ) in diet for 104 wks, Tumor Site: Type of Lesion: Thyroid: thyroid follicular adenomas and carcinomas (1/50; 1/50; 7/50; 8/50) Liver: Hepatocellular tumors (primari).

Consider `CCc1cccc2c3c([nH]c12)C(CC)(CC(=O)O)OCC3` (stereo not drawn), for which the carcinogen call was “inactive; negative” (Species: MOUSE, Strain/Sex: CD-1/FEMALE, Route: ORAL, Dose: 0;3, 9, 15 MG/KG/D IN DIET FOR 78 WK (STUDY DURATION: 78 WK), Dose: 0;3, 9, 15 MG/KG/D IN DIET FOR 78 WK (STUDY DURATION: 78 WK)); “inactive; negative” (Species: MOUSE, Strain/Sex: CD-1/MALE, Route: ORAL, Dose: 0, 3, 9, 15 MG/KG/D IN DIET FOR 78 WK (STUDY DURATION: 78 WK), Dose: 0, 3, 9, 15 MG/KG/D IN DIET FOR 78 WK (STUDY DURATION: 78 WK)); “inactive; negative” (Species: RAT, Strain/Sex: STRAIN-CD/FEMALE, Route: ORAL, Dose: 0, 3, 9, 15 MG/KG/D IN DIET FOR 104 WK (STUDY DURATION: 104 WK), Dose: 0, 3, 9, 15 MG/KG/D IN DIET FOR 104 WK (STUDY DURATION: 104 WK)); “inactive; negative” (Species: RAT, Strain/Sex: STRAIN-CD/MALE, Route: ORAL, Dose: 0, 3, 9, 15 MG/KG/D IN DIET FOR 104 WK (STUDY DURATION: 104 WK), Dose: 0, 3, 9, 15 MG/KG/D IN DIET FOR 104 WK (STUDY DURATION: 104 WK)).

In the case of `CC(C)c1ccccc1`, the carcinogen call (Species: Mouse, Strain/Sex: B5C3F1/ Female (50/Group), Route: Inhalation, Dose: 0, 125, 250, 500 ppm for 6 hr plus 12 min per d, 5 d/wk, 105 wk (Study duration: 105 wk), Dose: 0, 125, 250, 500 ppm for 6 hr plus 12 min per d, 5 d/wk, 105 wk (Study duration: 105 wk), Tumor Site: Type of Lesion: Lung: Alveolar/bronchiolar adenoma (1/50; 26/50; 36/50; 38/50), Alveolar/bronchiolar carcinoma (3/50, 16/50, 20/50, 34/, Tumor Site: Type of Lesion: Lung: Alveolar/bronchiolar adenoma (1/50; 26/50; 36/50; 38/50), Alveolar/bronchiolar carcinoma (3/50, 16/50, 20/50, 34/) was “active; positive. authors describe as clear evidence of carcinogenicity based on increas”; the carcinogen call (Species: Mouse, Strain/Sex: B5C3F1/ Male (50/Group), Route: Inhalation, Dose: 0, 250, 500, 1,000 ppm for 6 hr plus 12 min per d, 5 d/wk, 105 wk (Study duration: 105 wk), Dose: 0, 250, 500, 1,000 ppm for 6 hr plus 12 min per d, 5 d/wk, 105 wk (Study duration: 105 wk), Tumor Site: Type of Lesion: Lung: Alveolar/bronchiolar adenoma (13/50; 31/50; 29/50), Alveolar/bronchiolar carcinoma (9/50, 19/50, 32/50, 33/, Tumor Site: Type of Lesion: Lung: Alveolar/bronchiolar adenoma (13/50; 31/50; 29/50), Alveolar/bronchiolar carcinoma (9/50, 19/50, 32/50, 33/) was “active; positive. authors describe as clear evidence of carcinogenicity based on increas”; the carcinogen call (Species: Rat, Strain/Sex: F344/N / Female (50/Group), Route: Inhalation, Dose: 0, 250, 500, 1,000 ppm for 6 hr plus 12 min per d, 5 d/wk, 105 wk (Study duration: 105 wk), Dose: 0, 250, 500, 1,000 ppm for 6 hr plus 12 min per d, 5 d/wk, 105 wk (Study duration: 105 wk), Tumor Site: Type of Lesion: Nose (respiratory epithelium): Adenoma (0/50; 5/48; 4/50; 3/50)) is “inactive; negative. authors describe as some evidence of carcinogenicity”; the carcinogen call (Species: Rat, Strain/Sex: F344/N / Male (50/Group), Route: Inhalation, Dose: 0, 250, 500, 1,000 ppm for 6 hr plus 12 min per d, 5 d/wk, 105 wk (Study duration: 105 wk), Dose: 0, 250, 500, 1,000 ppm for 6 hr plus 12 min per d, 5 d/wk, 105 wk (Study duration: 105 wk), Tumor Site: Type of Lesion: Nose (respiratory epithelium): Adenoma (0/50, 7/50, 18/49, 10/50, Renal tubule: Adenoma (1/50; 4/50; 5/50; 4/50), Renal, Tumor Site: Type of Lesion: Nose (respiratory epithelium): Adenoma (0/50, 7/50, 18/49, 10/50, Renal tubule: Adenoma (1/50; 4/50; 5/50; 4/50), Renal) was “active; positive. authors describe as clear evidence of carcinogenicity except that test”.

Turning to `c1ccc2nc3ccc4ccccc4c3cc2c1`, the carcinogen call (Species: RAT, Strain/Sex: OSBORNE-MENDEL/FEMALE, Route: LUNG IMPLANT, Dose: 0, 0.2, 1.0, 5.0 MG IN BEESWAX/TRICAPRYLIN (STUDY DURATION: LIFETIME), Dose: 0, 0.2, 1.0, 5.0 MG IN BEESWAX/TRICAPRYLIN (STUDY DURATION: LIFETIME)) was “inactive; negative”.

In the case of `N#CC(Br)Br`, the carcinogen call was “active; positive (ntp describes as clear evidence)” (Species: Mouse, Strain/Sex: B6C3F1/Female (50/group), Route: Oral, Dose: 0, 50, 100, 200 mg/l in drinking water for 2 yr, Dose: 0, 50, 100, 200 mg/l in drinking water for 2 yr, Tumor Site: Type of Lesion: Forestomach: squamous cell papilloma and squamous cell carcinoma combined (1/50, 0/50, 5/50, 14/50)); “active; positive (ntp describes as clear evidence)” (Species: Mouse, Strain/Sex: B6C3F1/Male (50/group), Route: Oral, Dose: 0, 50, 100, 200 mg/l in drinking water for 2 yr, Dose: 0, 50, 100, 200 mg/l in drinking water for 2 yr, Tumor Site: Type of Lesion: Forestomach: squamous cell papilloma and squamous cell carcinoma combined (0/50, 1/50, 0/50, 5/50). Liver: hepatoblastom); “active; positive (ntp describes as some evidence)” (Species: Rat, Strain/Sex: F344/N / Female (50/group), Route: Oral, Dose: 0, 50, 100, 200 mg/l in drinking water for 2 yr, Dose: 0, 50, 100, 200 mg/l in drinking water for 2 yr, Tumor Site: Type of Lesion: Oral Cavity (oral mucosa or tongue): squamous cell papilloma (1/50, 0/50, 4/50, 0/50). Skin: squamous cell papilloma, ke); “active; positive (ntp describes as clear evidence)” (Species: Rat, Strain/Sex: F344/N / Male (50/group), Route: Oral, Dose: 0, 50, 100, 200 mg/l in drinking water for 2 yr, Dose: 0, 50, 100, 200 mg/l in drinking water for 2 yr, Tumor Site: Type of Lesion: Oral Cavity (oral mucosa or tongue): squamous cell papilloma and carcinoma combined (0/50, 0/50, 2/50, 5/50) (Statistica).

`c1ccc2c(c1)ccc1ncccc12`: the carcinogen call (Species: RAT, Strain/Sex: SPRAGUE-DAWLEY/FEMALE, Route: SUBCUTANEOUS, Dose: 0, 200 UMOL/KG IN DMSO INTO SUPRASCAPULAR AREA ON DAY 1 OF LIFE FOLLOWED BY 0, 100 UMOL 1/WK AT WK 2-7 THEN O, 200 UMOL/, Dose: 0, 200 UMOL/KG IN DMSO INTO SUPRASCAPULAR AREA ON DAY 1 OF LIFE FOLLOWED BY 0, 100 UMOL 1/WK AT WK 2-7 THEN O, 200 UMOL/) was “inactive; negative” and the carcinogen call (Species: RAT, Strain/Sex: SPRAGUE-DAWLEY/MALE, Route: SUBCUTANEOUS, Dose: 0, 200 UMOL/KG IN DMSO INTO SUPRASCAPULAR AREA ON DAY 1 OF LIFE FOLLOWED BY 0, 100 UMOL 1/WK AT WK 2-7 THEN O, 200 UMOL/, Dose: 0, 200 UMOL/KG IN DMSO INTO SUPRASCAPULAR AREA ON DAY 1 OF LIFE FOLLOWED BY 0, 100 UMOL 1/WK AT WK 2-7 THEN O, 200 UMOL/) is “inactive; negative”.

The record behind these values is PubChem BioAssay AID1259411 (Chemical Carcinogenesis Research Information System (CCRIS), 2018).
